The values below come from PMC10763754 (Science Advances, 2021).

Molecules are shown by their SMILES. Entries after “also recorded” stand apart in the source; their conditions may differ. Some results are limits rather than exact numbers.

For one test, the target named is CDC34A-ubiquitin complex (Homo sapiens, UniProt P0CG48+P49427). Briefly: biochemical. It counts as binding.
Sequence of CDC34A-ubiquitin complex (P49427 whole entry, other chains not shown): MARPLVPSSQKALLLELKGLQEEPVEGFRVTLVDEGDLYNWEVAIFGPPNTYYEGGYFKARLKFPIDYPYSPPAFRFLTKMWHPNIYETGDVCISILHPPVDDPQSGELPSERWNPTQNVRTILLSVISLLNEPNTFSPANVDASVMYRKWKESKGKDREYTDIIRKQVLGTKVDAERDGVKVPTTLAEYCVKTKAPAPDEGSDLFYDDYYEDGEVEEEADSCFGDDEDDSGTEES
Settings: not given
Take `COCC(=O)N1CCC(Cc2ccc(-c3cc(Cl)cc(Cl)c3)cc2)(C(N)=O)CC1` [2ac]: the “activity in the TR-FRET assay (in words)” value is recorded as “lacked activity”. In the case of `COCC(=O)N1CCC(Cc2ccc(-c3cc(Cl)cc(Cl)c3)cc2)(C(=O)NC[C@@H](C)O)CC1` [2at], the “activity in the TR-FRET assay (in words)” value was “abrogated activity; also recorded: complete loss of activity”.

For `COCC(=O)N1CCC(Cc2ccc(-c3cc(Cl)cc(Cl)c3)cc2)(C(=O)NC(C)C)CC1` [2aa], the “fold improvement in TR-FRET potency compared to hit 1” value was determined as 27 fold. With `Cc1nnc(C2(Cc3ccc(-c4cc(Cl)cc(Cl)c4)cc3)CCN(C(=O)COc3ccccc3)CC2)o1` [4b], the “activity in the TR-FRET assay (in words)” value was “abolished activity”. On to `CCC(=O)NC1(Cc2ccc(-c3cc(Cl)cc(Cl)c3)cc2)CCN(C(=O)COC)CC1` [3b], for which the “activity in the TR-FRET assay (in words)” value is “abolished TR-FRET activity”. Take `CCCCCN1CCC(Cc2ccc(-c3cc(Cl)cc(Cl)c3)cc2)(C(=O)OCC)CC1` [compound 7]: the “activity in the TR-FRET assay (in words)” value was “complete abrogation of activity”.

Turning to `COCC(=O)N1CCC(Cc2ccc(-c3cc(Cl)cc(Cl)c3)cc2)(c2nnc(C)o2)CC1` [4a], the “activity in the TR-FRET assay (in words)” value is given as “abolished activity”. With `COCC(=O)N1CCC(Cc2ccc(-c3cc(Cl)cc(Cl)c3)cc2)(C(=O)O)CC1` [compound 12], the “activity in the TR-FRET assay (in words)” value is “lacked activity”.

For orientation: EC50 means the concentration at which the effect is half-maximal. With `COCC(=O)N1CCC(Cc2ccc(-c3cccc(C)c3)cc2)(C(=O)NC(C)C)CC1` [compound 1], the EC50 was determined as 327 µM and the “fold worse than CC0651 in the TR-FRET screen assay” value was 10 fold. For `COCC(=O)N1CCC(Cc2ccc(-c3cc(Cl)cc(Cl)c3)cc2)(NC(C)=O)CC1` [3a], the “activity in the TR-FRET assay (in words)” value was “abolished TR-FRET activity”. The same measure, in the same setting: for `COCC(=O)N1CCC(Cc2ccc(-c3cc(Cl)cc(Cl)c3)cc2)(C(=O)NC[C@@H](O)CO)CC1` [2au] the value was “abrogated activity; also recorded: complete loss of activity”; for `COCC(=O)N1CCC(Cc2ccc(-c3cc(Cl)cc(Cl)c3)cc2)(C(=O)NCCO)CC1` [2ai], “abrogated activity; also recorded: complete loss of activity”. For `CCNC(=O)C1(Cc2ccc(-c3cc(Cl)cc(Cl)c3)cc2)CCN(C(=O)OCC(C)C)CC1` [2db], the “fold increase in TR-FRET potency relative to parent 2ab” value turned out to be 10 fold. `CCNC(=O)C1(Cc2ccc(-c3cc(Cl)cc(Cl)c3)cc2)CCN(C(=O)COC)CC1` [2ab]: the “fold improvement in TR-FRET potency compared to hit 1” value is on record as more than 80 fold. Take `COCC(=O)N1CCC(O)(c2ccc(-c3cc(Cl)cc(Cl)c3)cc2)CC1` [compound 6]: the “activity in the TR-FRET assay (in words)” value is “completely inactive”.

Staying with this test, now noted: TR-FRET EC50.
`CCCNC(=O)C1(Cc2ccc(-c3cc(Cl)cc(Cl)c3)cc2)CCN(C(=O)COC)CC1` [2ae] had an EC50 of 4 µM.

Take `COCC(=O)N1CCC(Cc2ccc(-c3cc(Cl)cc(Cl)c3)cc2)(C(=O)N2CCCC2)CC1` [2aα]: the response was half-maximal at 3 µM (EC50). For `CCNC(=O)C1(Cc2ccc(-c3cc(Cl)cc(Cl)c3)cc2)CCN(C(=O)[C@@H]2CCCO2)CC1` [2fb], the EC50 was 17 to 23 µM. Turning to `COCC(=O)N1CCC(Cc2ccc(-c3cc(Cl)cc(Cl)c3)cc2)(C(=O)NC(C)(C)C)CC1` [2as], the EC50 worked out at 15 µM. As to `COCC(=O)N1CCC(Cc2ccc(-c3cc(Cl)cc(Cl)c3)cc2)(C(=O)NC(C)C)CC1` [2aa], the EC50 stood at 12 µM. `CNC(=O)C1(Cc2ccc(-c3cc(Cl)cc(Cl)c3)cc2)CCN(C(=O)COC)CC1` [2ad] returned an EC50 of 20 µM. This EC50 lies about 1.7-fold higher than the previous one.

On to `COCC(=O)N1CCC(Cc2ccc(-c3cc(Cl)cc(Cl)c3)cc2)(C(=O)N2CCOCC2)CC1` [2aζ], for which the concentration giving a half-maximal response (EC50) came to 3 µM. Take `CCNC(=O)C1(Cc2ccc(-c3cc(Cl)cc(Cl)c3)cc2)CCN(C(=O)CCOC)CC1` [2cb]: it took 2 µM to reach a half-maximal effect (EC50). On the same count and under the same terms, the same measure for `COCC(=O)N1CCC(Cc2ccc(-c3cc(Cl)cc(Cl)c3)cc2)(C(=O)NC2CC2)CC1` [2al]: 5 µM; for `COCC(=O)N1CCC(Cc2ccc(-c3cc(Cl)cc(Cl)c3)cc2)(C(=O)NCC2CC2)CC1` [2ah]: 7 µM; for `CCCCCNC(=O)C1(Cc2ccc(-c3cc(Cl)cc(Cl)c3)cc2)CCN(C(=O)COC)CC1` [2ak]: 26 µM.

Consider `COCC(=O)N1CCC(Cc2ccc(-c3cc(Cl)cc(Cl)c3)cc2)(C(=O)N2CCCCC2)CC1` [2aη], for which the EC50 turned out to be 1 µM. In the case of `CCNC(=O)C1(Cc2ccc(-c3cc(Cl)cc(Cl)c3)cc2)CCN(C(=O)c2ccccc2)CC1` [2gb], a half-maximal effect (EC50) was put at 2 µM. This EC50 is about 2-fold higher than that of the compound before. Still for that read-out and setting: the same measure for `CCNC(=O)C1(Cc2ccc(-c3cc(Cl)cc(Cl)c3)cc2)CCN(C(=O)OCC(C)C)CC1` [2db]: 0.4 µM; for `CCNC(=O)C1(Cc2ccc(-c3cc(Cl)cc(Cl)c3)cc2)CCN(C(=O)COC)CC1` [2ab]: 4 µM. `CCNC(=O)C1(Cc2ccc(-c3cc(Cl)cc(Cl)c3)cc2)CCN(C(=O)[C@H]2CCCO2)CC1` [2eb] registered an EC50 of 17 to 23 µM.

The target of the next test is CDC34A (Homo sapiens, UniProt P0CG48+P49427).
Sequence of CDC34A (P49427 whole entry, other chains not shown): as above
Test: not given
The note with it: cited from earlier work.
Regarding `COCC(=O)N[C@@H](Cc1ccc(-c2cc(Cl)cc(Cl)c2)cc1)[C@H](O)[C@@H](O)C(=O)O` [CC0651], the “potency of CC0651 in vitro” value is recorded as ~ 5 μM.
